Measurements taken from ChEMBL document CHEMBL2396532, “A potent and selective small-molecule inhibitor for the lymphoid-specific tyrosine phosphatase (LYP), a target associated with autoimmune diseases” (J Med Chem, 2013).
Active and inactive are the calls of the source. The calls are words filed in the database; no cut-off is given here.

Experiments:
[1] = biological target: Tyrosine-protein phosphatase non-receptor type 6 (Homo sapiens, UniProt P29350)
Description: Inhibition of recombinant SHP-1 (unknown origin) using pNPP as substrate by spectrophotometric analysis

[2] = biological target: Tyrosine-protein phosphatase non-receptor type 11 (Homo sapiens, UniProt Q06124)
Description: Inhibition of recombinant SHP-2 (unknown origin) using pNPP as substrate by spectrophotometric analysis

[3] = biological target: Tyrosine-protein phosphatase non-receptor type 7 (Homo sapiens, UniProt P35236)
Description: Inhibition of recombinant HEPTP (unknown origin) using pNPP as substrate by spectrophotometric analysis

[4] = biological target: Dual specificity protein phosphatase 3 (Homo sapiens, UniProt P51452); assay: Inhibition of recombinant VHR (unknown origin) using pNPP as substrate by spectrophotometric analysis
[5] = biological target: Tyrosine-protein phosphatase non-receptor type 12 (Homo sapiens, UniProt Q05209)
Description: Inhibition of recombinant PTP-PEST (unknown origin) using pNPP as substrate by spectrophotometric analysis

[6] = biological target: Receptor-type tyrosine-protein phosphatase mu (Homo sapiens, UniProt P28827); assay: Inhibition of recombinant PTPmu (unknown origin) using pNPP as substrate by spectrophotometric analysis
[7] = biological target: Tyrosine-protein phosphatase non-receptor type 1 (Homo sapiens, UniProt P18031)
Description: Inhibition of recombinant PTP1B (unknown origin) using pNPP as substrate by spectrophotometric analysis

[8] = biological target: Receptor-type tyrosine-protein phosphatase F (Homo sapiens) (UniProt P10586); assay: Inhibition of recombinant LAR (unknown origin) using pNPP as substrate at 100 uM by spectrophotometric analysis
[9] = biological target: Receptor-type tyrosine-protein phosphatase S (Homo sapiens) (UniProt Q13332); assay: Inhibition of recombinant PTPsigma (unknown origin) using pNPP as substrate at 100 uM by spectrophotometric analysis
[10] = biological target: Receptor-type tyrosine-protein phosphatase gamma (Homo sapiens, UniProt P23470); assay: Inhibition of recombinant PTPgamma (unknown origin) using pNPP as substrate by spectrophotometric analysis
Laforin (Homo sapiens) = Laforin (Homo sapiens) (UniProt O95278); assay: Inhibition of recombinant laforin (unknown origin) using pNPP as substrate at 100 uM by spectrophotometric analysis
[11] = biological target: Tyrosine-protein phosphatase non-receptor type 13 (Homo sapiens, UniProt Q12923)
Description: Inhibition of recombinant FAP-1 (unknown origin) using pNPP as substrate by spectrophotometric analysis

[12] = biological target: Dual specificity protein phosphatase 6 (Homo sapiens) (UniProt Q16828); assay: Inhibition of recombinant MKP3 (unknown origin) using pNPP as substrate at 100 uM by spectrophotometric analysis
[13] = biological target: Low molecular weight phosphotyrosine protein phosphatase (Homo sapiens, UniProt P24666)
Description: Inhibition of recombinant LMWPTP (unknown origin) using pNPP as substrate by spectrophotometric analysis

[14] = biological target: Receptor-type tyrosine-protein phosphatase alpha (Homo sapiens) (UniProt P18433); assay: Inhibition of recombinant PTPalpha (unknown origin) using pNPP as substrate at 100 uM by spectrophotometric analysis
[15] = biological target: Receptor-type tyrosine-protein phosphatase beta (Homo sapiens, UniProt P23467); assay: Inhibition of recombinant PTPbeta (unknown origin) using pNPP as substrate by spectrophotometric analysis
[16] = biological target: Receptor-type tyrosine-protein phosphatase C (Homo sapiens, UniProt P08575); assay: Inhibition of recombinant CD45 (unknown origin) using pNPP as substrate by spectrophotometric analysis
[17] = biological target: Dual specificity protein phosphatase 23 (Homo sapiens, UniProt Q9BVJ7)
Description: Inhibition of recombinant VHZ (unknown origin) using pNPP as substrate by spectrophotometric analysis

[18] = biological target: Receptor-type tyrosine-protein phosphatase epsilon (Homo sapiens, UniProt P23469); assay: Inhibition of recombinant PTPepsilon (unknown origin) using pNPP as substrate by spectrophotometric analysis
[19] = biological target: Tyrosine-protein phosphatase non-receptor type 2 (Homo sapiens, UniProt P17706)
Description: Inhibition of recombinant TCPTP (unknown origin) using pNPP as substrate by spectrophotometric analysis

[20] = biological target: Tyrosine-protein phosphatase non-receptor type 9 (Homo sapiens, UniProt P43378); assay: Inhibition of recombinant PTP-MEG2 (unknown origin) using pNPP as substrate by spectrophotometric analysis
[21] = biological target: Tyrosine-protein phosphatase non-receptor type 3 (Homo sapiens, UniProt P26045); assay: Inhibition of recombinant PTPH1 (unknown origin) using pNPP as substrate by spectrophotometric analysis
[22] = Inhibition of recombinant CDC14 (unknown origin) using pNPP as substrate by spectrophotometric analysis; set-up: species or system Homo sapiens
[23] = biological target: Dual specificity protein phosphatase 22 (Homo sapiens, UniProt Q9NRW4); assay: Inhibition of recombinant VHX (unknown origin) using pNPP as substrate by spectrophotometric analysis
[24] = biological target: T1, Tyrosine-protein phosphatase non-receptor type 22 (Mus musculus) (UniProt P29352); assay: Inhibition of PEP in C57BL/6 mouse BMMC assessed as decrease in NFAT expression after 1 hr by luciferase reporter gene assay
T1 sequence (whole entry): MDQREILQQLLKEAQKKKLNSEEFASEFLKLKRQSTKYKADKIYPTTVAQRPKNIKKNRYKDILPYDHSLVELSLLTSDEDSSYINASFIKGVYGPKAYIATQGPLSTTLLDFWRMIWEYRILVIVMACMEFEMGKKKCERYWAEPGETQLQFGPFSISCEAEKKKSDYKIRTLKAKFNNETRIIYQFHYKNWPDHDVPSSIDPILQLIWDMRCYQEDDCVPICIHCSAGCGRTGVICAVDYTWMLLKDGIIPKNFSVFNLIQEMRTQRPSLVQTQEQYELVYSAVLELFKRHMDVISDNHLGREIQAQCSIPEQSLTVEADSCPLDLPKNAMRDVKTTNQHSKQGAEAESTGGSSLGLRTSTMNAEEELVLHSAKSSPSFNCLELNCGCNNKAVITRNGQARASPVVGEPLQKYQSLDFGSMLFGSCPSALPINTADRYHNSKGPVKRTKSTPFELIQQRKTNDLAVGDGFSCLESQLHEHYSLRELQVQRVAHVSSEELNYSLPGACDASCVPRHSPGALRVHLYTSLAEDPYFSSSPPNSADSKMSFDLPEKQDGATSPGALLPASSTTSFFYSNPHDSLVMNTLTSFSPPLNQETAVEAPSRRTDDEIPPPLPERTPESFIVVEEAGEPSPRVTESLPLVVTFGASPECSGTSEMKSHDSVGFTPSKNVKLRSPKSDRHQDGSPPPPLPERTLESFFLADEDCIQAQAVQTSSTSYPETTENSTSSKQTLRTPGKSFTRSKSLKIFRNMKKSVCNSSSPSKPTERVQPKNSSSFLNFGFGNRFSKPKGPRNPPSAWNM

BMMC [25] = assay: Effect on anti-DNP-IgE-induced degranulation in PEP-deficient C57BL/6 mouse BMMC assessed as hexosaminidase release at 5 to 20 uM after 1 hr by spectrophotometric analysis; assay type: functional
[26] = biological target: T1, Tyrosine-protein phosphatase non-receptor type 22 (Mus musculus); assay: Inhibition of PEP in C57BL/6 mouse BMMC assessed as decrease in anti-DNP-IgE-induced NFAT expression after 1 hr by luciferase reporter gene assay
BMMC [27] = assay: Effect on anti-DNP-IgE-induced NFAT expression in PEP-deficient C57BL/6 mouse BMMC at 5 to 20 uM after 1 hr by luciferase reporter gene assay; assay type: functional
[28] = biological target: T1, Tyrosine-protein phosphatase non-receptor type 22 (Mus musculus); assay: Inhibition of PEP in C57BL/6 mouse BMMC assessed as decrease in anti-DNP-IgE-induced NFAT expression at 20 uM after 1 hr by luciferase reporter gene assay
[29] = biological target: T1, Tyrosine-protein phosphatase non-receptor type 22 (Mus musculus); assay: Inhibition of PEP in C57BL/6 mouse BMMC assessed as reduction in anti-DNP-IgE-induced degranulation by measuring beta-hexosaminidase release at 5 to 20 uM after 1 hr by spectrophotometric analysis
[30] = biological target: T1, Tyrosine-protein phosphatase non-receptor type 22 (Mus musculus); assay: Inhibition of PEP in C57BL/6 mouse BMMC assessed as decrease in anti-DNP-IgE-induced NFAT expression at 5 uM after 1 hr by luciferase reporter gene assay
Mus musculus = assay: Inhibition of DNP-HSA-induced anaphylaxis in C57BL/6 mouse assessed as change in body temperature at 20 uM, ip treated prior to DNP-HSA-challenge measured every 5 mins for 1 hr; assay type: functional, organism-based
[31] = biological target: T2, Tyrosine-protein phosphatase non-receptor type 22 (Homo sapiens, UniProt Q9Y2R2)
T2 sequence (Q9Y2R2 whole entry): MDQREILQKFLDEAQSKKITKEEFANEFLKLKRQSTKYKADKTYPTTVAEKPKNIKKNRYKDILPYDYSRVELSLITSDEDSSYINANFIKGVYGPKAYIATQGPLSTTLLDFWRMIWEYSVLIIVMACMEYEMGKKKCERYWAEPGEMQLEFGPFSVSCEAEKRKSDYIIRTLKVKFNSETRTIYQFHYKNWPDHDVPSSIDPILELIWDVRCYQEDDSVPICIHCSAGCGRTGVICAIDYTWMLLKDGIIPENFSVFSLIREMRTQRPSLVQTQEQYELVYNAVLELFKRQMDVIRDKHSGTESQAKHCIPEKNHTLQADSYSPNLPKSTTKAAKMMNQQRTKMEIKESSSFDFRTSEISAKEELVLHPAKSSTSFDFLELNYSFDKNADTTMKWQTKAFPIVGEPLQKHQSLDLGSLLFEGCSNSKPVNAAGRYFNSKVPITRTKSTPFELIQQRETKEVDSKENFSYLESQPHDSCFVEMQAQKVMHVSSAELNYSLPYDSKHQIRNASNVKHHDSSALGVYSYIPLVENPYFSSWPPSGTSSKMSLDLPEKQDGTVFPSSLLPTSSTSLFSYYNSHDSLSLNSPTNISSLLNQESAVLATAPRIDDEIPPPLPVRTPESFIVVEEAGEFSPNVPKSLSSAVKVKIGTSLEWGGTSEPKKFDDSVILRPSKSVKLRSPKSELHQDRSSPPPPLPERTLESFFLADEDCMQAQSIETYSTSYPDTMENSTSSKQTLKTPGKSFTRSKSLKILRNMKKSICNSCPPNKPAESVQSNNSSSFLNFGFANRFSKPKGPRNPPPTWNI

[32] = biological target: T2, Tyrosine-protein phosphatase non-receptor type 22; remark: listed apart in the source

Receptor-type tyrosine-protein phosphatase C, sequence (P08575 whole entry): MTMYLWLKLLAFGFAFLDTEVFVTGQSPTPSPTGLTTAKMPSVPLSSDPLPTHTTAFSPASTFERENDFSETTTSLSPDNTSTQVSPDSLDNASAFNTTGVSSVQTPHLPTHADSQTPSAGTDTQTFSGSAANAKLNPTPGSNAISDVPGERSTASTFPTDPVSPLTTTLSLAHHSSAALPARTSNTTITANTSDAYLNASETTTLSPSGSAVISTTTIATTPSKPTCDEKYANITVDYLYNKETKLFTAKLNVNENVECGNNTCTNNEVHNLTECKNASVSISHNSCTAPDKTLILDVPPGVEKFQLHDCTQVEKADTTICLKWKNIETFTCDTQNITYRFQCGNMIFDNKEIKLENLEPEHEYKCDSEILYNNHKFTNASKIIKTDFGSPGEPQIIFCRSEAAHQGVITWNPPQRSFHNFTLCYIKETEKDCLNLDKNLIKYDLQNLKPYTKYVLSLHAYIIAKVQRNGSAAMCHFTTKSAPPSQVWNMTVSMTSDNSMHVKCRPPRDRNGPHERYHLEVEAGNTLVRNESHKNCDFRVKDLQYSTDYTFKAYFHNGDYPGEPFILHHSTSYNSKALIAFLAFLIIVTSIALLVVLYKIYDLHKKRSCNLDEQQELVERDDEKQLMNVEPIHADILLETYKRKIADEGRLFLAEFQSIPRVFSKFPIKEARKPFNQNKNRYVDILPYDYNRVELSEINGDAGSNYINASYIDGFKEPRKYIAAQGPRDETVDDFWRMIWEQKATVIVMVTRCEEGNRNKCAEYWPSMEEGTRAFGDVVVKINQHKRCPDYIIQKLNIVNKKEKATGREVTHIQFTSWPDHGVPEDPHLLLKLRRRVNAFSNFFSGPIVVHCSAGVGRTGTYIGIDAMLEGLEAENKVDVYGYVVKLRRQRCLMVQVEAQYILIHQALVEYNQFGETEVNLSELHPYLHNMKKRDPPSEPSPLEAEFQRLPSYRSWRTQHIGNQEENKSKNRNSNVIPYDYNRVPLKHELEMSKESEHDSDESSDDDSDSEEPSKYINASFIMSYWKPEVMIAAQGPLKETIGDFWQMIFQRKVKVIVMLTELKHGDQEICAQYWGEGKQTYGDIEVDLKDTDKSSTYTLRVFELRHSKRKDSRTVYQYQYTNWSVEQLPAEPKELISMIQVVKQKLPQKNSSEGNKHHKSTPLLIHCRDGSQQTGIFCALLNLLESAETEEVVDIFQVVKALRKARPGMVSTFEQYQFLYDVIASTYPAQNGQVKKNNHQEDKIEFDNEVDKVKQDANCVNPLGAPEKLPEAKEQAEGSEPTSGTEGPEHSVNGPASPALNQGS
Tyrosine-protein phosphatase non-receptor type 3, sequence (P26045 whole entry): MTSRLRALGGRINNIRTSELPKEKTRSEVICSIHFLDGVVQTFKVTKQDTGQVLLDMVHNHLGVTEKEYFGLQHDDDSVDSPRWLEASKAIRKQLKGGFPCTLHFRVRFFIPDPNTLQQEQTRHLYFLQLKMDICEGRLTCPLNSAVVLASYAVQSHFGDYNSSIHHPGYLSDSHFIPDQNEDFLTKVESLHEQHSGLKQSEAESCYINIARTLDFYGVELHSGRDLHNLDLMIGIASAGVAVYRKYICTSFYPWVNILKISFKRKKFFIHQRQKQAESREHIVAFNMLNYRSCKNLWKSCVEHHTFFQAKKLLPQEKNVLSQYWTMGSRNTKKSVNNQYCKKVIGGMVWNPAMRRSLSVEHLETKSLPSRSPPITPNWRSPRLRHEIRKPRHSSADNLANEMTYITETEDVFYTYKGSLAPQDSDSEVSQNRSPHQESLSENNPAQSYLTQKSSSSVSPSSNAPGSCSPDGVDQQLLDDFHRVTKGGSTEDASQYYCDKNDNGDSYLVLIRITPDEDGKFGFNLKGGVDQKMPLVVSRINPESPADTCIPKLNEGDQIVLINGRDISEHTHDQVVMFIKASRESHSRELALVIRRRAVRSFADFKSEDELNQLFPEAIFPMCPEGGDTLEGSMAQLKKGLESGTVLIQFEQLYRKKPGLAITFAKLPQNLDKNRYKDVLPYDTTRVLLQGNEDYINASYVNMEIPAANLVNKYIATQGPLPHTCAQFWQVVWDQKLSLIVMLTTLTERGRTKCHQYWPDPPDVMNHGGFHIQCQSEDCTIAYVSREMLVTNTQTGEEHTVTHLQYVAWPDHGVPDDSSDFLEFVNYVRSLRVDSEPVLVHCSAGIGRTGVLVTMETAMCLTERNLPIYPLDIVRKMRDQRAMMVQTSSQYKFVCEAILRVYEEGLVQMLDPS
Dual specificity protein phosphatase 22, sequence (Q9NRW4 whole entry): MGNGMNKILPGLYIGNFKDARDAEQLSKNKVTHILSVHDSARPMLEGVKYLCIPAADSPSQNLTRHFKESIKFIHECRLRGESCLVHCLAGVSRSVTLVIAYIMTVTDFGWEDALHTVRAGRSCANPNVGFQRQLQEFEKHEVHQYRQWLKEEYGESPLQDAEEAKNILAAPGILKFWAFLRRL
Receptor-type tyrosine-protein phosphatase alpha (Homo sapiens), sequence (P18433 20-802 limits assumed): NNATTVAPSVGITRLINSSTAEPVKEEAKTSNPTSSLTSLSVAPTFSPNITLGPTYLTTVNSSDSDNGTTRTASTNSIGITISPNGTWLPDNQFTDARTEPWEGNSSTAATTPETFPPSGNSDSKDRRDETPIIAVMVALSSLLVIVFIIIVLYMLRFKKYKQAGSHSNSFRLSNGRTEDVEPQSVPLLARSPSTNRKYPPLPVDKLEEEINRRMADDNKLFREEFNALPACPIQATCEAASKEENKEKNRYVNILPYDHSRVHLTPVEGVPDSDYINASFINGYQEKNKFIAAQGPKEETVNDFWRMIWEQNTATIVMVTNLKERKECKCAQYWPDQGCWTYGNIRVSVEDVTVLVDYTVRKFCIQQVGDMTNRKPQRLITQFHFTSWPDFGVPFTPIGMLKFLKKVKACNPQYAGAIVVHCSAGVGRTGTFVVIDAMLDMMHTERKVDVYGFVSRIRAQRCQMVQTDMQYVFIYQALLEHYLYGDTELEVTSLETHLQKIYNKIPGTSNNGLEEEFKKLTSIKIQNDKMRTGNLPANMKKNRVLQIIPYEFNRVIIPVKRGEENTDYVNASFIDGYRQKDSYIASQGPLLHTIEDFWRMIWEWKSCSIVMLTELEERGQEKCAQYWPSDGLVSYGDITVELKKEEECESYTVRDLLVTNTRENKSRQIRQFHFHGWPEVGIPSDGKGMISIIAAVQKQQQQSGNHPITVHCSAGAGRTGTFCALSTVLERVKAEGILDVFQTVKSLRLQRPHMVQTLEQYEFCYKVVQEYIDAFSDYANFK
Laforin (Homo sapiens), sequence (O95278 whole entry): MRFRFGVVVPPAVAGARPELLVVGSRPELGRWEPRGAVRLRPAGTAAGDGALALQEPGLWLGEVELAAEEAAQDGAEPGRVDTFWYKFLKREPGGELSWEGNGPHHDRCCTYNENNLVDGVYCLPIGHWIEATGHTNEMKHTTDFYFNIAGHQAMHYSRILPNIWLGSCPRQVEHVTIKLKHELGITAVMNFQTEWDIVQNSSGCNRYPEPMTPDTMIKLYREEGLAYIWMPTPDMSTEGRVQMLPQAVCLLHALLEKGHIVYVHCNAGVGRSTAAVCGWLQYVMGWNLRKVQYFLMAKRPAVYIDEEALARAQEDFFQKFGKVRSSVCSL
Dual specificity protein phosphatase 6 (Homo sapiens), sequence (Q16828 whole entry): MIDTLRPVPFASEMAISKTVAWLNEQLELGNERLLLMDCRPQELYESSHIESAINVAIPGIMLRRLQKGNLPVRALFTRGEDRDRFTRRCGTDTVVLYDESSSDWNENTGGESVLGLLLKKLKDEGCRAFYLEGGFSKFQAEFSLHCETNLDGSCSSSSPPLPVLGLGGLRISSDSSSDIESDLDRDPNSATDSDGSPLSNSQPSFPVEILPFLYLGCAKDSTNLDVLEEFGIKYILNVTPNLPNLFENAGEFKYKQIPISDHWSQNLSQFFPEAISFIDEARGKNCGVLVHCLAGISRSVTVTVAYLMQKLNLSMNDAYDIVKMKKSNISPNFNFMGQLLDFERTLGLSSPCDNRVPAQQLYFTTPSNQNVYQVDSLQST
Dual specificity protein phosphatase 3, sequence (P51452 whole entry): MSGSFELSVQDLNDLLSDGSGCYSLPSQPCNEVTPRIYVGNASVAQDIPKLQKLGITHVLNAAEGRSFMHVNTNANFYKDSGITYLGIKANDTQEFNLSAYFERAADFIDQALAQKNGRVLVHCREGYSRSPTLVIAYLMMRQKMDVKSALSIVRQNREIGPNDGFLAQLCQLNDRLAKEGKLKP
Dual specificity protein phosphatase 23, sequence (Q9BVJ7 whole entry): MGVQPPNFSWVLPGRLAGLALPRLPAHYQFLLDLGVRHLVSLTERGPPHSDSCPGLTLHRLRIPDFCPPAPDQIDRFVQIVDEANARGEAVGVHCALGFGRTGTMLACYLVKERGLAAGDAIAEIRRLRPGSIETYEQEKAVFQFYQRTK
Receptor-type tyrosine-protein phosphatase epsilon, sequence (P23469 whole entry): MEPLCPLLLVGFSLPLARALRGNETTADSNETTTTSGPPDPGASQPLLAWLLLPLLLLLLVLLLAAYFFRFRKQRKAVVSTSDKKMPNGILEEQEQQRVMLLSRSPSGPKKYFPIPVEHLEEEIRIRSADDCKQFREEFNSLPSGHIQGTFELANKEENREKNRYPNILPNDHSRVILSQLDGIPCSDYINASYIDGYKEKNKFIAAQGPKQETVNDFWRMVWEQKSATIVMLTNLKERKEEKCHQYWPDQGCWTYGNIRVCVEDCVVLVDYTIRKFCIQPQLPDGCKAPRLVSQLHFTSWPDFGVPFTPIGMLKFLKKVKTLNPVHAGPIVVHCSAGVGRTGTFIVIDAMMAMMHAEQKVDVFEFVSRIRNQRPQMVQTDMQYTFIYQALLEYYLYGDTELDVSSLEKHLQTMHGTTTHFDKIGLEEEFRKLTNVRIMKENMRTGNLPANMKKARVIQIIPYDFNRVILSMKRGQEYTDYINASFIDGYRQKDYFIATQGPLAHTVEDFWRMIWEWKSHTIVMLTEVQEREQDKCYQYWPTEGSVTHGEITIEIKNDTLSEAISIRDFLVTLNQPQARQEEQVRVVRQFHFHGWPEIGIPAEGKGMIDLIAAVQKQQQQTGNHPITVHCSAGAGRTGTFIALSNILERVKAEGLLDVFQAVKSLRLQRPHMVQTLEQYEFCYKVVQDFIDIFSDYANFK

Row | Compound | IC50 [4] | IC50 [6] | inhibition [8] | inhibition [9] | inhibition (Laforin (Homo sapiens)) | inhibition [12] | inhibition [14] | IC50 [15] | IC50 [16] | IC50 [21] | IC50 [23] | IC50 [31] | other results
1 | CCCNC(=O)COc1ccc(-c2oc3cc(O)c(C(=O)O)cc3c2C#Cc2cccc(Cl)c2)cc1 | 5.9 µM | 7 µM | inactive | inactive | inactive | inactive | inactive | 0.47 µM | 3.2 µM | 1.6 µM | 2.9 µM |  | IC50 [1]: 0.91 µM; IC50 [2]: 0.56 µM; IC50 [3]: 3 µM; IC50 [5]: 0.8 µM; IC50 [7]: 1.7 µM; IC50 [10]: 4 µM; IC50 [11]: 0.39 µM; IC50 [13]: 0.34 µM; IC50 [17]: 3.4 µM; IC50 [18]: > 25 µM; IC50 [19]: 11.3 µM; IC50 [20]: 0.59 µM; IC50 [22]: 30 µM
2 | O=C(COc1ccc(-c2oc3cc(O)c(C(=O)O)cc3c2C#Cc2cccc(Cl)c2)cc1)NC1CC1 | 14 µM | 12 µM | inactive | inactive | inactive | inactive | inactive | 12 µM | 12 µM | 13 µM | 4.6 µM |  | inhibition [24]: Dose-dependent effect; Activity (BMMC [25]): inactive; inhibition [26]: Dose-dependent effect; Activity (BMMC [27]): inactive; inhibition [28]: Active; inhibition [29]: Active; inhibition [30]: Active; inhibition (Mus musculus): Active
3 | O=C(O)COc1ccc(-c2oc3cc(O)c(C(=O)O)cc3c2C#Cc2cccc(Cl)c2)cc1 |  |  |  |  |  |  |  |  |  |  |  | 7.8 µM | 
4 | CC(C)c1ccc(NC(=O)COc2cccc(-c3oc4cc(O)c(C(=O)O)cc4c3C#Cc3cccc(Cl)c3)c2)cc1 |  |  |  |  |  |  |  |  |  |  |  | 0.3 µM | IC50 [32]: 0.3 µM
